Measured values taken from patent US7378104B2, “Delivering substances to invertebrate organisms” (priority 2000, dated 2008).
“And” between values parts separate entries of the source, which are not always exact repeats. Identical values can stand only once. Like-named read-outs stand apart in the source and are kept apart here. Marks after values point to notes of the source that are not given here.

Tests used:
Zebra mussels [1] = test: Experiment 1: toxicity of different masses of KCl to Zebra mussels over two days; assay type: in vivo, Dreissena polymorpha
Experimental: The toxicity of KCl alone to Zebra mussels is illustrated in Table 1 below, which gives the results of the following experiment:
1) A series of pots where filled with 20 ml of distilled water plus a specified mass of KCl crystals, ground to less than 53 microns. The masses of KCl were chosen to represent the total amount of KCl that would be ingested by a mussel filtering 1 litre of water per day.
2) One mussel was placed in each pot (it was assumed that the mussel would continuously re-filter the limited amount of solution in the pot and thus ingest the required amount of KCl.

Zebra mussels [2] = assay type: in vivo, Dreissena polymorpha; conditions: Mass of toxin 100 mg
Excerpt: The toxicity of an alternative toxin was also investigated and compared with that of KCl.

Zebra mussels [3] = test: Experiment 8: Batch 7 particles versus KCl in beakers; assay type: in vivo, Dreissena polymorpha; conditions: for No. of live mussels in each pot: 1.15 g KCl
Experimental: A batch of particles (“Batch 7”) was manufactured by a fluidised bed coating method. 98 μm KCl particles were passed through a 350 μm sieve with 1% silica to help fluidisation. 800 g of solids were sprayed with palmitic acid (MP 61° C.) for 20 minutes at approximately 12 ml min^−1. 400 g of the resulting solids were then further coated with palmitic acid to finally produce particles containing between 20 and 25% wt of KCl.
40 1-litre beakers were filled with 500 ml of tap water and aerated overnight in a temperature controlled room at 25° C. Ten large Zebra mussels were placed into each beaker, attempting to keep a similar size range in all. Five different treatments were applied (such that each had eight replicates); • 1. 5 g of (Batch 7) was added. • 2. 0.5 g of (Batch 7) was added. • 3. 0.05 g of (Batch 7) was added. • 4. 5 g of Palmitic acid alone was added. • 5. 1.15 g of KCl (the same amount by mass as in 5 g of Batch 7) was added.
Each treatment substance was thoroughly stirred into each beaker and aeration continued for the duration of the experiment. At reasonably regular intervals, the number of dead mussels (as indicated by gape) were counted in each pot, before being removed and measured. This was continued until most were dead, or 72 hours had elapsed.

Zebra Mussel = conditions: cited from earlier work
Rainbow Trout = Rainbow Trout 0.8-1.2 g; cited from earlier work
Channel Catfish = Channel Catfish 0.8-1.2 g; cited from earlier work
Threehorn Wartyback = system: Threehorn Wartyback; parameters: unit not given here; conditions: Threehorn Wartyback 30-50 mm; cited from earlier work

Which state of mussel (Zebra mussels [1]; 0.1 mg KCl, 17/03/99 16:30) does the source give for [Cl-].[K+] [KCl, potassium chloride] here?
Its state of mussel is “Alive”.

And the state of mussel (Zebra mussels [1]; 0.1 mg KCl, 18/03/99 11:30)?
Its state of mussel is “Alive”.

And the state of mussel (Zebra mussels [1]; 0.1 mg KCl, 18/03/99 13:30)?
The state of mussel was “Alive”.

And the state of mussel (Zebra mussels [1]; 0.1 mg KCl, 19/03/99 16:00)?
The state of mussel was “Alive”.

And the state of mussel (Zebra mussels [1]; 0.5 mg KCl, 17/03/99 16:30)?
Its state of mussel is “Alive”.

And the state of mussel (Zebra mussels [1]; 0.5 mg KCl, 18/03/99 11:30)?
The state of mussel was “Alive”.

And the state of mussel (Zebra mussels [1]; 0.5 mg KCl, 18/03/99 13:30)?
The state of mussel was “Closed”.

And the state of mussel (Zebra mussels [1]; 0.5 mg KCl, 19/03/99 16:00)?
Its state of mussel is “Alive”.

What about the state of mussel (Zebra mussels [1]; 1 mg KCl, 17/03/99 16:30) of the same molecule?
The state of mussel was “Alive”.

And the state of mussel (Zebra mussels [1]; 1 mg KCl, 18/03/99 11:30)?
The state of mussel was “Alive”.

And the state of mussel (Zebra mussels [1]; 1 mg KCl, 18/03/99 13:30)?
The state of mussel was “Alive”.

What about the state of mussel (Zebra mussels [1]; 1 mg KCl, 19/03/99 16:00) of the same molecule?
Its state of mussel is “Alive”.

And the state of mussel (Zebra mussels [1]; 5 mg KCl, 17/03/99 16:30)?
The state of mussel was “Alive”.

What about the state of mussel (Zebra mussels [1]; 5 mg KCl, 18/03/99 11:30) of the same molecule?
Its state of mussel is “Alive”.

What about the state of mussel (Zebra mussels [1]; 5 mg KCl, 18/03/99 13:30) of the same molecule?
Its state of mussel is “Alive”.

And the state of mussel (Zebra mussels [1]; 5 mg KCl, 19/03/99 16:00)?
Its state of mussel is “Alive”.

What about the state of mussel (Zebra mussels [1]; 10 mg KCl, 17/03/99 16:30) of the same molecule?
The state of mussel was “Alive”.

What about the state of mussel (Zebra mussels [1]; 10 mg KCl, 18/03/99 11:30) of the same molecule?
The state of mussel was “Alive”.

And the state of mussel (Zebra mussels [1]; 10 mg KCl, 18/03/99 13:30)?
The state of mussel was “Closed”.

What about the state of mussel (Zebra mussels [1]; 10 mg KCl, 19/03/99 16:00) of the same molecule?
Its state of mussel is “Dead”.

What about the state of mussel (Zebra mussels [1]; 25 mg KCl, 17/03/99 16:30) of the same molecule?
Its state of mussel is “Alive”.

What about the state of mussel (Zebra mussels [1]; 25 mg KCl, 18/03/99 11:30) of the same molecule?
The state of mussel was “Dead”.

What about the state of mussel (Zebra mussels [1]; 25 mg KCl, 18/03/99 13:30) of the same molecule?
The state of mussel was “Dead”.

And the state of mussel (Zebra mussels [1]; 25 mg KCl, 19/03/99 16:00)?
The state of mussel was “Dead”.

And the state of mussel (Zebra mussels [1]; 50 mg KCl, 17/03/99 16:30)?
Its state of mussel is “Alive”.

And the state of mussel (Zebra mussels [1]; 50 mg KCl, 18/03/99 11:30)?
Its state of mussel is “Dead”.

What about the state of mussel (Zebra mussels [1]; 50 mg KCl, 18/03/99 13:30) of the same molecule?
The state of mussel was “Dead”.

What about the state of mussel (Zebra mussels [1]; 50 mg KCl, 19/03/99 16:00) of the same molecule?
Its state of mussel is “Dead”.

What about the “effectiveness of KCl alone over the test period” value (Zebra mussels [1]; lower concentrations) of the same molecule?
Its value is “not effective”.

And the “Time for mortality of all mussels” value (Zebra mussels [2])?
Its value is 8 h.

And the mortality (Zebra mussels [2]; at 8 hours)?
Its mortality is 60%.

And the “No. of live mussels in each pot” value (Zebra mussels [3]; 0.5 hrs)?
Its value is 10.

And the “No. of live mussels in each pot” value (Zebra mussels [3]; 1 hrs)?
The value was 10 and 9.

What about the “No. of live mussels in each pot” value (Zebra mussels [3]; 1.5 hrs) of the same molecule?
Its value is 10 and 9.

What about the “No. of live mussels in each pot” value (Zebra mussels [3]; 2 hrs) of the same molecule?
The value was 10 and 9 and 7.

And the “No. of live mussels in each pot” value (Zebra mussels [3]; 3 hrs)?
The value was 9 and 8 and 7 and 10.

And the “No. of live mussels in each pot” value (Zebra mussels [3]; 3.5 hrs)?
Its value is 9 and 8 and 7 and 6.

What about the “No. of live mussels in each pot” value (Zebra mussels [3]; 4.5 hrs) of the same molecule?
The value was 8 and 7 and 5 and 6 and 9.

And the “No. of live mussels in each pot” value (Zebra mussels [3]; 5 hrs)?
Its value is 7 and 6 and 4 and 5 and 8.

What about the “No. of live mussels in each pot” value (Zebra mussels [3]; 6 hrs) of the same molecule?
The value was 6 and 4 and 5 and 7.

What about the “No. of live mussels in each pot” value (Zebra mussels [3]; 7.5 hrs) of the same molecule?
The value was 6 and 4 and 3 and 5.

And the mortality (Zebra mussels [3]; 1.15 g of KCl, especially over the first 8 hours)?
Its mortality is “rapid mortality”.

What about the 48-hour LC50 (Zebra Mussel; Zebra Mussel 5-8 mm) of the same molecule?
The 48-hour LC50 was 147 µg/mL.

And the 48-hour LC50 (Zebra Mussel; Zebra Mussel 20-25 mm)?
Its 48-hour LC50 is 150 µg/mL.

What about the 48-hour LC50 (Rainbow Trout) of the same molecule?
The 48-hour LC50 was 1610 µg/mL.

What about the 48-hour LC50 (Channel Catfish) of the same molecule?
The 48-hour LC50 was 720 µg/mL.

And the “48-hour LC50” value (Threehorn Wartyback)?
Its value is >2000^a.
